Reference: patent publication US20250257060A1, “OXADIAZOLE COMPOUND, PHARMACEUTICAL COMPOSITION COMPRISING SAME, AND USE THEREOF” (SUZHOU GENHOUSE BIO CO., LTD., priority 2022, published 2025)
Where two headings read alike, the source gives them in different places.

Legend:
[1] = test system: acetylation level of α-tubulin in A375 cells; assay: Assay on acetylation level of α-tubulin, A375 cells; format: cell-based; settings: Homo sapiens, A-375, 6 h
Procedure: A375/HCT116/HCC827 cells at a logarithmic growth phase were taken, digested with a […] (trypsin), centrifuged, counted, and plated in a 96-well plate at an appropriate cell density (30,000 cells/well) at 100 µL/well, and an appropriate amount of PBS was added around the plate for water sealing. The next day, the cells were treated with the compounds at different concentrations (starting at 100 μM, 5-fold dilution, 9 concentration gradients). After 6 h, the medium was pipetted out and the cells were washed twice with 100 μL of PBST. The cells were then immobilized in 4% paraformaldehyde, and the plate was incubated at room temperature for 20 min. The stationary liquid was discarded and the cells were washed with PBST. 150 μL of special blocking buffer (containing 1% Triton-100) was added to each well for blocking at room temperature for 2 h, and the plate was washed with PBS to remove excess blocking buffer. α-tubulin (DM1A) mouse mAb and acetyl-α-tubulin (Lys40) (D20G3) XP rabbit mAb were diluted at a 1:2000 ratio with a blocking buffer containing 0.033% Triton-100. The dilutions were added to the 96-well plate and the plate was incubated overnight at 4° C. Meanwhile, a blank control group was set. The next day, the plate was washed twice with PBST. […] Fluorescence signals at 700 nm and 800 nm were detected with a Li-COR Odyssey two-color near-infrared laser imager.

[2] = Pharmacokinetic test in mice (IV and PO); format: in vivo, BALB/c mice; settings: for Cmax / AUC(0-inf) / AUC(0-t) / MRT inf / Vd / Tmax: BALB/c, mouse, plasma; for MRT inf: read-out: MRT(0-∞); for Vd: read-out: Vz
How it was run: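 BALB/c mice (3 per group) given single IV or intragastric doses; blood sampled orbitally at 0.25–24 h into K2-EDTA tubes for plasma. Concentrations measured by LC-MS/MS; parameters from non-compartmental analysis with linear-log trapezoidal method.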

HDAC1 = HDAC1 (Homo sapiens (Human), UniProt Q13547); assay: HDAC subtype enzymatic activity assay, HDAC1; format: biochemical; settings: read-out: HADC1 Inhibition rate (%)
Procedure: The inhibitory activity of the compounds of the present application on HDAC1-5 and 7-11 was evaluated by an enzymatic activity assay.
1 M Trypsin and 10 M TSA were added, and the plate was incubated at room temperature for 15 min. […] IC50 was obtained by fitting using GraphPadPrism 7.0 software.

HDAC6 = HDAC6 (Homo sapiens (Human), UniProt Q9UBN7); assay: HDAC6 enzymatic activity assay; format: biochemical
How it was run: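 Recombinant HDAC6 with compound and Ac-GAK(Ac)-AMC substrate ([…]), 37° C. for 30 min, then developed with trypsin plus TSA for 15 min at room temperature. IC50 from curve fitting.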

[3] = po, 10 mg/kg, read-out: C0/Cmax
[4] = po, 100 mg/kg, read-out: C0/Cmax
[5] = mice, PO 30 mg/kg (Cmax), read-out: C0/Cmax

Chain of HDAC1 (Q13547 whole entry): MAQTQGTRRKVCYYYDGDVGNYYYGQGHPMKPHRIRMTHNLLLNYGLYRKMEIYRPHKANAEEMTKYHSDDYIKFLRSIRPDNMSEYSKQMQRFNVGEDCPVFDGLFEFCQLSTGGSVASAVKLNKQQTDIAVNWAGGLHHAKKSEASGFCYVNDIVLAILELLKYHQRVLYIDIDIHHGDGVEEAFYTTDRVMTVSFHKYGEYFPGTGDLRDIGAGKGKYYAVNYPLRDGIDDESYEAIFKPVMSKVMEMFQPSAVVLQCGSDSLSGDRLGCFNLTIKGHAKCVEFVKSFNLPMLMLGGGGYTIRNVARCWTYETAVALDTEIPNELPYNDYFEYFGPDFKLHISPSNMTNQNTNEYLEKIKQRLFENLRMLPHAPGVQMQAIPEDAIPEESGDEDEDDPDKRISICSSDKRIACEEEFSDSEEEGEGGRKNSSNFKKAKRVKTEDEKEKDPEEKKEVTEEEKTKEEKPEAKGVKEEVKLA
Chain of HDAC6 (Q9UBN7 whole entry): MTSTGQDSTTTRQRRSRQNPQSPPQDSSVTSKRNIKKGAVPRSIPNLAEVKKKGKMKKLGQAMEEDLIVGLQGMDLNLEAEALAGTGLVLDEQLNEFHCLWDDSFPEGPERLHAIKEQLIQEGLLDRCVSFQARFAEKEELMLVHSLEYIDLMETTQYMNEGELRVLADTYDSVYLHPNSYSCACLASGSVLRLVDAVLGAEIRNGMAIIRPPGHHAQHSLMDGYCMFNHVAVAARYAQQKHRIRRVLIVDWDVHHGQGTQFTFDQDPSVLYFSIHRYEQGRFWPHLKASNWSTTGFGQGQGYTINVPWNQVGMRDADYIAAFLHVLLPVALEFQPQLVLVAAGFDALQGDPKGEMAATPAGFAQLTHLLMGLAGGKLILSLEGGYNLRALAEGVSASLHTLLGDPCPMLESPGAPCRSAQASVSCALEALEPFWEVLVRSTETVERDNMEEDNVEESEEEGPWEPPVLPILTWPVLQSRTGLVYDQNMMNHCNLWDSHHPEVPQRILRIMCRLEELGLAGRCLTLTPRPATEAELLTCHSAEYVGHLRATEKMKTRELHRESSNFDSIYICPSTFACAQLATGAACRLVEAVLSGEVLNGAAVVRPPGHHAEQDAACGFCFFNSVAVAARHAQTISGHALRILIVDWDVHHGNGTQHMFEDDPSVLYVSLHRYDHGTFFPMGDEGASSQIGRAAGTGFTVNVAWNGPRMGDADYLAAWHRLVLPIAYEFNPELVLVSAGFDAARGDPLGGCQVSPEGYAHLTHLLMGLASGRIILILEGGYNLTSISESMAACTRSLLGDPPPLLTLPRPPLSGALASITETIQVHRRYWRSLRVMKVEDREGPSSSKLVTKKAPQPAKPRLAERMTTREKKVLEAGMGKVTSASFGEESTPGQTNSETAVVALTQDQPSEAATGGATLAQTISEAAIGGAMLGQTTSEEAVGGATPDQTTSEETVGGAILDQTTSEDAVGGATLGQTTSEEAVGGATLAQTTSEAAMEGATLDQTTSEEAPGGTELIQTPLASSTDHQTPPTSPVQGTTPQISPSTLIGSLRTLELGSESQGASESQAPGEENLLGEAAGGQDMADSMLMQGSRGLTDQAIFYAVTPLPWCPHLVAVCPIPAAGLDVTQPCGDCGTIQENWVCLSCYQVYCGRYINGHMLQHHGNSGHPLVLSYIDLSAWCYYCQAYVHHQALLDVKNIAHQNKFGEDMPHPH

Compound	EC50 [1] [µM]	Cmax [2, 3] [µM]	Cmax [2, 4] [µM]	AUC(0-inf) ([2]; mice, IV 2 mg/kg) [µM·h]	AUC(0-t) ([2]; mice, IV 2 mg/kg) [µM·h]	Cmax ([2]; mice, IV 2 mg/kg (C0)) [µM]	MRT inf ([2]; mice, IV 2 mg/kg) [h]	Vd ([2]; mice, IV 2 mg/kg) [L/kg]	AUC(0-inf) ([2]; mice, PO 10 mg/kg) [µM·h]	AUC(0-t) ([2]; mice, PO 10 mg/kg) [µM·h]	Tmax ([2]; mice, PO 10 mg/kg) [h]	MRT inf ([2]; mice, PO 10 mg/kg) [h]	AUC(0-inf) ([2]; mice, PO 30 mg/kg) [µM·h]	AUC(0-t) ([2]; mice, PO 30 mg/kg) [µM·h]	Tmax ([2]; mice, PO 30 mg/kg) [h]	Cmax [2, 5] [µM]	CLz ([2]; mice, IV 2 mg/kg) [mL/min/kg]	t½z ([2]; mice, IV 2 mg/kg) [h]	F ([2]; mice, PO 10 mg/kg) [%]	t½z ([2]; mice, PO 10 mg/kg) [h]	further results
CC(F)(F)C(=O)N[C@@H]1CCCC[C@H]1N1Cc2ccc(-c3nnc(C(F)F)o3)cc2S1(=O)=O [Compound 1]	0.393 ± 0.192	8.97	30.5	9.88	9.88	4.52	2.19	0.684	45.2	45.2	1	3.35	73.1	73.1	0.417	17.5	7.1	1.062	91.46	0.919	MRT inf ([2]; mice, PO 30 mg/kg): 3.65 h; AUC(0-inf) ([2]; mice, PO 100 mg/kg): 171 µM·h; AUC(0-t) ([2]; mice, PO 100 mg/kg): 171 µM·h; Tmax ([2]; mice, PO 100 mg/kg): 1.5 h; MRT inf ([2]; mice, PO 100 mg/kg): 3.71 h; F ([2]; mice, PO 30 mg/kg): 49.31%; t½z ([2]; mice, PO 30 mg/kg): 0.918 h; F ([2]; mice, PO 100 mg/kg): 34.72%; t½z ([2]; mice, PO 100 mg/kg): 1.292 h; inhibition at 1 µM (HDAC1; 1 μM): 8.57%; inhibition at 10 µM (HDAC1; 10 μM): -3.17%; IC50 (HDAC6): 0.059 µM
O=C(N[C@@H]1CCCC[C@H]1N1Cc2ccc(-c3nnc(C(F)F)o3)cc2S1(=O)=O)C(F)F [Compound 2]	0.203 ± 0.115	13.9	87.9	12.6	12.6	6.75	2.35	0.55	77.8	77.7	0.5	4.5	182	182	0.67	35	6	1.01	123.92	1.62	MRT inf ([2]; mice, PO 30 mg/kg): 3.66 h; AUC(0-inf) ([2]; mice, PO 100 mg/kg): 601 µM·h; AUC(0-t) ([2]; mice, PO 100 mg/kg): 601 µM·h; Tmax ([2]; mice, PO 100 mg/kg): 1.33 h; MRT inf ([2]; mice, PO 100 mg/kg): 4.33 h; F ([2]; mice, PO 30 mg/kg): 96.93%; t½z ([2]; mice, PO 30 mg/kg): 0.87 h; F ([2]; mice, PO 100 mg/kg): 95.71%; t½z ([2]; mice, PO 100 mg/kg): 0.81 h; inhibition at 1 µM (HDAC1): -11.9%; inhibition at 10 µM (HDAC1): -3.91%
O=C(N[C@H]1[C@H](N2Cc3ccc(-c4nnc(C(F)F)o4)cc3S2(=O)=O)CCCC1(F)F)C(F)F [Compound 61]		12.6		15.4	12.8	4.52	4.38	1.18	73.4	57	1	5.3					4.35	3.12	89.2	3.551	IC50 (HDAC6): 0.063 µM
